49 molecules from patent US11001590B2, “Pyrazolopyrimidine derivatives” (BAYER ANIMAL HEALTH GMBH, priority 2016, dated 2021) can be followed below.

As a reminder, the log P is a log measure of how a compound divides between an organic and an aqueous phase. Low values mean a more hydrophilic compound, high ones a more lipophilic compound. A word on the chromatographic logP: it is lipophilicity estimated from chromatographic retention. Higher therefore signals higher lipophilicity. The EC50 is the concentration that produces a half-maximal response.

A short description of data set [1]: log P by HPLC on reversed phase columns (Method L0; [a] acidic, [b] neutral range). Particulars: for log P: HPLC on reversed phase columns (Method L0); for logP (Method L0) [a]: HPLC on reversed phase columns, Method L0, [a] acidic range.
Method: Calibration was done with straight-chain alkan-2-ones (with 3 to 16 carbon atoms) with known log P values (measurement of log P values using retention times with linear interpolation between successive alkanones). Lambda-max-values were determined using UV-spectra from 200 nm to 400 nm and the peak values of the chromatographic signals.
For data set [2], the target named is C. elegans Slo-1a (Caenorhabditis elegans, UniProt Q95V25). Description: In vitro assay 1: C. elegans Slo-1a, action at a recombinant C. elegans CHO cell line (membrane potential measurement). Particulars: for pE50: CHO cells expressing C. elegans Slo-1a, voltage sensitive dye, FLIPR Tetra, negative decadic logarithm of EC50.
C. elegans Slo-1a, sequence (Q95V25 whole entry): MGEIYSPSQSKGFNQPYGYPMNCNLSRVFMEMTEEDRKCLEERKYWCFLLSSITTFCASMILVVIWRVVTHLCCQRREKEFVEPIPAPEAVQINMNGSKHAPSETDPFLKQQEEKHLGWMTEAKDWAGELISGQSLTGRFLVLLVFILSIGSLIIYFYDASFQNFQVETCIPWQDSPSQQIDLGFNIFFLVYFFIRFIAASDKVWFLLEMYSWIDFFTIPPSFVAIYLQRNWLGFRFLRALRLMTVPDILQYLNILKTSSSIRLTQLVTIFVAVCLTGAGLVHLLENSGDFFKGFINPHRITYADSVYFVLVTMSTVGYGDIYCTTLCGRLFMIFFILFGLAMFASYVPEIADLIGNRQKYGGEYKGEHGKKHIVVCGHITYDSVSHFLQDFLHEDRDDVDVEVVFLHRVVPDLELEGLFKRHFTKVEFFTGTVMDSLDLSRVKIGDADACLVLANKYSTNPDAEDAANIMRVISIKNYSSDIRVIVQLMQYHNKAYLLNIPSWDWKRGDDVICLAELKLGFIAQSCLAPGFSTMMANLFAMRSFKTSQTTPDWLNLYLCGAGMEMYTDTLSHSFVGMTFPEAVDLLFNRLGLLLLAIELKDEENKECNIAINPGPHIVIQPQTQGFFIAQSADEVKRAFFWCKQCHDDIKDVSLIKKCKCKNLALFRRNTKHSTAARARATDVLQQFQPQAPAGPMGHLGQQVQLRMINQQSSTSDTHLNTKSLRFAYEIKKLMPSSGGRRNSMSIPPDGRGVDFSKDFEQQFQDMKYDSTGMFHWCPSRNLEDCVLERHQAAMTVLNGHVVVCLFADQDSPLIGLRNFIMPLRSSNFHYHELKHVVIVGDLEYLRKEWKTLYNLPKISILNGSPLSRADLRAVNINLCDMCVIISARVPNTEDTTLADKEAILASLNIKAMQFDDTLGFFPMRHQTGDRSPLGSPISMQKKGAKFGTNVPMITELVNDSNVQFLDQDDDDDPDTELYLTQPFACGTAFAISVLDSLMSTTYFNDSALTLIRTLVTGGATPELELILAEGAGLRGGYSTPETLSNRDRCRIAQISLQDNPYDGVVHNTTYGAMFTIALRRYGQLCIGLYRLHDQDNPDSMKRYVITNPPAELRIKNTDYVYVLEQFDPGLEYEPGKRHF
[3] abbreviates: last column of Table 1, column head not shown.

On to `Cc1nn2c(C(C)C)c(C(=O)N[C@H]3CCOc4ccccc43)cnc2c1-c1ccc(Cl)c(Cl)c1` [Example 230], for which the “log P” value in data set [1] was 5.48. The pE50 in data set [2] was found to be 8.1.

On to `Cc1ccc2c(c1)[C@@H](NC(=O)c1cnc3c(-c4ccccc4Cl)c(C)nn3c1C(C)C)CCC2` [Example 111], for which the “logP (Method L0) [a]” value in data set [1] came to 5.37. In data set [2], the pE50 was 7.2.

For `CCOc1ccc(-c2c(C)nn3c(C(C)C)c(C(=O)N[C@H]4CCc5ccccc54)cnc23)cc1` [Example 339], the chromatographic logP in data set [1] came out at 4.87. Further, the EC50 in data set [2] was 2510 nM.

For `Cc1nn2c(C(C)C)c(C(=O)N[C@H]3CCOc4ccc(Cl)cc43)cnc2c1-c1c(F)cccc1F` [Example 97], the “logP (Method L0) [a]” value in data set [1] is on record as 4.61. Further, the pE50 in data set [2] was 7.2.

For the molecule `COc1ccc(F)c(-c2c(C)nn3c(C(C)C)c(C(=O)N[C@H]4CCOc5ccccc54)cnc23)c1Cl` [Example 233], the lipophilicity (log P) in data set [1] is recorded as 4.23. Further, the pE50 in data set [2] is listed as 8.1.

Consider `Cc1nn2c(C(C)C)c(C(=O)N[C@H]3CCc4ccccc43)cnc2c1-c1ccc(OC(F)F)cc1` [Example 335], for which the chromatographic logP in data set [1] was determined as 4.66. In addition, the 50% effective concentration (EC50) in data set [2] is 126 nM.

For `Cc1ccc2c(c1)[C@@H](NC(=O)c1cnc3c(-c4ccccc4F)c(C)nn3c1C(C)C)CCC2` [Example 110], in data set [1], the “logP (Method L0) [a]” value is on record as 5.16. For the same molecule, the pE50 in data set [2] came to 6.7.

Consider `Cc1nn2c(C(C)C)c(C(=O)N[C@H]3CCCc4ccccc43)cnc2c1-c1cnn(CC(F)(F)F)c1` [Example 359], for which the “log P” value in data set [1] is 4.11. Further, the pE50 in data set [2] is 7.9.

With `COc1c(F)cc(F)c(-c2c(C)nn3c(C(C)C)c(C(=O)N[C@H]4CCOc5ccccc54)cnc23)c1F` [Example 235], the lipophilicity (log P) in data set [1] is 4.38. Besides, in data set [2], the pE50 is given as 9.2.

In the case of `Cc1ccc2c(c1)[C@@H](NC(=O)c1cnc3c(-c4cccc(C(F)(F)F)c4)c(C)nn3c1C(C)C)CCC2` [Example 5], in data set [1], the “logP (Method L0) [a]” value was determined as 5.99. In data set [2], the pE50 was 7.2.

For the molecule `COc1c(Cl)ccc(-c2c(C)nn3c(C(C)C)c(C(=O)N[C@H]4CCOc5ccccc54)cnc23)c1F` [Example 216], the “log P” value in data set [1] stood at 4.74. Also, the pE50 in data set [2] turned out to be 9.1.

Consider `CC(C)c1c(C(=O)N[C@H]2CCCc3ccccc32)cnc2c(-c3cccc(C(F)(F)F)c3)c(Cl)nn12` [Example 72], for which the chromatographic logP in data set [1] came to 5.85. Besides, the EC50 in data set [2] was 79.4 nM.

`Cc1nn2c(C(C)C)c(C(=O)N[C@H]3CCc4ccccc43)cnc2c1-c1cccc(N2CCOCC2)c1` [Example 316] showed a chromatographic logP in data set [1] of 4.26. The EC50 in data set [2] is 158 nM.

Take `Cc1nn2c(NC3CC3)c(C(=O)N[C@H]3CCOc4ccccc43)cnc2c1-c1cccc(Cl)c1Cl` [Example 546]: the “log P” value in data set [1] (setting [3]) worked out at 4.32. In addition, in data set [2], the pE50 was determined as 8.2.

In turn, `CC(C)c1c(C(=O)N[C@H]2CCc3ccccc32)cnc2c(-c3cccc(Cl)c3)c(C(F)(F)F)nn12` [Example 48] yielded a chromatographic logP in data set [1] of 5.46. Besides, the EC50 in data set [2] was 251 nM.

For `CC(C)c1c(C(=O)N[C@H]2CCc3ccccc32)cnc2c(-c3ccccc3Cl)c(C(F)(F)F)nn12` [Example 88], the chromatographic logP in data set [1] amounted to 4.96. Besides, in data set [2], the half-maximal effective concentration (EC50) is 79.4 nM.

In the case of `Cc1nn2c(C(C)C)c(C(=O)N[C@H]3CCOc4ccc(Cl)cc43)cnc2c1-c1ccccc1Cl` [Example 104], the “logP (Method L0) [a]” value in data set [1] is reported as 4.87. In data set [2], the pE50 was 7.

As for `Cc1nn2c(C(C)C)c(C(=O)N[C@H]3CCOc4ccccc43)cnc2c1-c1cccc(OC(F)(F)F)c1F` [Example 215], the lipophilicity (log P) in data set [1] is reported as 5.02. Besides, the pE50 in data set [2] worked out at 9.1.

`CC(C)c1c(C(=O)N[C@H]2CCCc3ccccc32)cnc2c(-c3ccccc3Cl)c(C(F)(F)F)nn12` [Example 89] came in with a chromatographic logP in data set [1] of 5.24. In data set [2], the EC50 is 631 nM.

Molecule `Cc1nn2c(C(C)C)c(C(=O)N[C@H]3CCc4ccccc43)cnc2c1-c1cc(F)cc(C(F)(F)F)c1` [Example 292] registered a chromatographic logP in data set [1] of 5.6. Besides, the EC50 in data set [2] was 39.8 nM.

In data set [1], `Cc1nn2c(C(C)C)c(C(=O)N[C@H]3CCCc4ccccc43)cnc2c1-c1cc(Cl)cc(Cl)c1` [Example 7] registered a chromatographic logP of 6.39. Further, the EC50 in data set [2] is 20 nM.

Take `Cc1nn2c(C(C)C)c(C(=O)N[C@H]3CCc4ccccc43)cnc2c1-c1ccc(Cl)nc1` [Example 295]: the chromatographic logP in data set [1] turned out to be 4.21. The half-maximal effective concentration (EC50) in data set [2] is 63.1 nM.

Take `Cc1nn2c(C(C)C)c(C(=O)N[C@H]3CCCc4ccccc43)cnc2c1-c1ccc(Cl)c(C(=O)NC2CC2)c1` [Example 119]: in data set [1], the “logP (Method L0) [a]” value is listed as 4.07. In data set [2], the pE50 is reported as 5.5.

As for `CC(C)c1c(C(=O)N[C@H]2CCCc3ccccc32)cnc2c(-c3cccc(C(F)(F)F)c3)c(C(F)(F)F)nn12` [Example 56], the chromatographic logP in data set [1] amounted to 5.8. Further, the EC50 in data set [2] was 398 nM.

As for `Cc1nn2c(CN(C)C)c(C(=O)N[C@H]3CCOc4ccccc43)cnc2c1-c1cccc(Cl)c1Cl` [Example 523], the “log P” value in data set [1] (setting [3]) worked out at 2.17. Also, the pE50 in data set [2] was determined as 8.0.

For `Cc1nn2c(C(C)C)c(C(=O)N[C@H]3CCc4ccccc43)cnc2c1-c1cnn(CC(F)(F)F)c1` [Example 310], the “log P” value in data set [1] turned out to be 3.81. Moreover, the pE50 in data set [2] worked out at 8.

In the case of `CSCCN(C)c1c(C(=O)N[C@H]2CCOc3ccccc32)cnc2c(-c3cccc(Cl)c3Cl)c(C)nn12` [Example 529], the “log P” value in data set [1] (setting [3]) was 4.69. In addition, the pE50 in data set [2] was found to be 8.1.

Consider `Cc1nn2c(C(C)C)c(C(=O)N[C@H]3CCc4ccccc43)cnc2c1-c1cnn(C)c1` [Example 303], for which, in data set [1], the chromatographic logP was 3.13. Moreover, the EC50 in data set [2] is 794 nM.

In turn, `Cc1nn2c(C(C)C)c(C(=O)N[C@H]3CCc4ccccc43)cnc2c1-c1ccc(C#N)c(C(F)(F)F)c1` [Example 293] had a chromatographic logP in data set [1] of 4.97. In addition, the EC50 in data set [2] is 316 nM.

On to `Cc1nn2c(C(C)C)c(C(=O)N[C@H]3CCOc4ccc(Cl)cc43)cnc2c1-c1ccc(F)c(F)c1` [Example 101], for which the “logP (Method L0) [a]” value in data set [1] stood at 5.03. The pE50 in data set [2] was determined as 6.6.

As for `Cc1nn2c(C(C)C)c(C(=O)N[C@H]3CCc4ccccc43)cnc2c1-c1ccc(N2CCOCC2)cc1` [Example 326], the chromatographic logP in data set [1] was 4.2. The EC50 in data set [2] was 1260 nM.

Turning to `Cc1nn2c(C(C)C)c(C(=O)N[C@H]3CCc4ccccc43)cnc2c1-c1ccc2c(c1)OC(F)(F)O2` [Example 123], the chromatographic logP in data set [1] is 5.25. Also, in data set [2], the EC50 is 10 nM.

In the case of `Cc1nn2c(C(C)C)c(C(=O)N[C@H]3CCOc4ccc(Cl)cc43)cnc2c1-c1ccccc1F` [Example 93], the “logP (Method L0) [a]” value in data set [1] was 4.67. For the same molecule, the pE50 in data set [2] is listed as 7.

Regarding `Cc1ccc2c(c1)[C@@H](NC(=O)c1cnc3c(-c4c(F)cccc4F)c(C)nn3c1C(C)C)CCC2` [Example 108], the “logP (Method L0) [a]” value in data set [1] is 5.09. In addition, the pE50 in data set [2] was found to be 7.3.

With `Cc1nn2c(C(C)C)c(C(=O)NC3CCOc4ccc(F)cc43)cnc2c1-c1c(F)cccc1Cl` (racemic) [Example 254], in data set [1], the lipophilicity (log P) was 4.45. In addition, the pE50 in data set [2] came to 8.1.

Regarding `Cc1nn2c(N(C)CCS(C)(=O)=O)c(C(=O)N[C@H]3CCOc4ccccc43)cnc2c1-c1cc(Cl)cc(Cl)c1` [Example 541], the “log P” value in data set [1] (setting [3]) came out at 3.29. Further, the pE50 in data set [2] is reported as 8.0.

Turning to `Cc1nn2c(C(C)C)c(C(=O)N[C@H]3CCc4ccccc43)cnc2c1-c1ccncc1` [Example 318], the chromatographic logP in data set [1] turned out to be 1.84. Also, in data set [2], the EC50 is 1000 nM.

Regarding `Cc1ccc2c(c1)C(NC(=O)c1cnc3c(-c4c(F)cccc4Cl)c(C)nn3c1C(C)C)CCO2` (racemic) [Example 237], in data set [1], the “log P” value worked out at 4.67. In addition, in data set [2], the pE50 was 7.5.

As to `Cc1nn2c(C(C)C)c(C(=O)N[C@H]3CCOc4ccccc43)cnc2c1-c1cnn(CC(F)(F)F)c1` [Example 401], in data set [1] (setting [3]), the “log P” value is given as 3.57. Also, in data set [2], the pE50 is 7.9.

For `CC(C)c1c(C(=O)N[C@H]2CCc3ccccc32)cnc2c(-c3ccc(Cl)cc3)c(Cl)nn12` [Example 73], the chromatographic logP in data set [1] was 5.47. Moreover, the 50% effective concentration (EC50) in data set [2] was 158 nM.

With `Cc1nn2c(C(C)C)c(C(=O)N[C@H]3CCc4ccccc43)cnc2c1-c1cccc(-n2cccn2)c1` [Example 328], the chromatographic logP in data set [1] is 4.4. Further, the EC50 in data set [2] is 39.8 nM.

`CCc1c(C(=O)N[C@H]2CCc3ccccc32)cnc2c(-c3cccc(C(F)(F)F)c3)c(C)nn12` [Example 306] returned a chromatographic logP in data set [1] of 4.86. For the same molecule, the EC50 in data set [2] is 50.1 nM.

Turning to `Cc1nn2c(C(C)C)c(C(=O)N[C@H]3CCc4ccccc43)cnc2c1-c1cccc(C[S+](C)[O-])c1` (stereo partly drawn) [Example 380], the log partition coefficient (log P) in data set [1] was determined as 3.05. Besides, the pE50 in data set [2] was found to be 6.

`CC(C)c1c(C(=O)N[C@H]2CCc3ccccc32)cnc2c(-c3cccc(C(F)(F)F)c3)c(Cl)nn12` [Example 70] displayed a chromatographic logP in data set [1] of 5.55. Moreover, in data set [2], the EC50 is 31.6 nM.

Consider `Cc1nn2c(NC3CC3)c(C(=O)N[C@H]3CCOc4ccccc43)cnc2c1-c1cc(F)cc(F)c1` [Example 539], for which the “log P” value in data set [1] (setting [3]) is on record as 4.46. Also, the pE50 in data set [2] stood at 6.8.

On to `CC(C)c1c(C(=O)N[C@H]2CCc3ccccc32)cnc2c(-c3cc(Cl)cc(Cl)c3)c(C(F)(F)F)nn12` [Example 167], for which the chromatographic logP in data set [1] turned out to be 6.06. For the same molecule, the EC50 in data set [2] was 39.8 nM.

In data set [1], `COc1ccc(-c2c(C)nn3c(C(C)C)c(C(=O)N[C@H]4CCc5ccccc54)cnc23)cc1` [Example 333] gave a chromatographic logP of 4.43. For the same molecule, the EC50 in data set [2] is 100 nM.

Take `CC(C)c1c(C(=O)N[C@H]2CCc3ccccc32)cnc2c(-c3cccc(F)c3)c(C3CC3)nn12` [Example 416]: the “log P” value in data set [1] (setting [3]) was determined as 5.41.

`Cc1c(C(=O)N[C@H]2CCc3ccccc32)cnc2c(-c3ccc(Cl)cc3)c(C(F)(F)F)nn12` [Example 57]: the “logP (Method L0) [a]” value in data set [1] came out at 4.7.
